Laboratory results published in PubChem BioAssay AID2060626 (Molecular Pharmacology Branch, DTP, NCI, 2025).
Where “and” joins values, the source holds several entries; their conditions need not be identical. Equal values may be shown once.

Tested on: 168753-222-R-J1-PDC complex spheroid viability
Assay: Anticancer human tumor 168753-222-R-J1-PDC patient-derived bladder carcinoma cell line growth inhibition [CLK]
Settings: for viability, T/C: stronger effect = lower value
Procedure, shortened: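 Multi-cell-type spheroids combined patient-derived tumor cells with HUVEC endothelial cells and human mesenchymal stem cells. Paired agents were dosed in half-log steps down from about clinical Cmax, or from 10 microM where Cmax was unknown.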

[1] = curve of first compound, second compound 0.0316 µM
[2] = curve of first compound, second compound 0.1 µM
[3] = curve of first compound, second compound 0.316 µM
[4] = curve of first compound, second compound 1 µM
[5] = curve of first compound, second compound 3.16 µM
[6] = curve of first compound, second compound 10 µM
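Note: viability measured after seven days of drug exposure.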
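Throughout, for viability, T/C: luminescence signal used as surrogate for viable cell amount; 100% = DMSO vehicle control wells.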

What does the source list for `C=CC(=O)Nc1cc(Nc2nccc(-c3cn(C)c4ccccc34)n2)c(OC)cc1N(C)CCN(C)C` + CN1CCN(c2cc(C(=O)Nc3cc4cc(-c5cnn(C)c5)ccc4cn3)ccn2)CC1?
IC50 [1]: > 0.3 µM; IC50 [2]: 0.0589 µM; IC50 [3]: < 0.000949 µM; IC50 [4]: < 0.000949 µM; IC50 [5]: < 0.000949 µM; IC50 [6]: < 0.000949 µM; viability, T/C (second compound 0.0316 µM, first compound 0.000949 µM): 117%; viability, T/C (second compound 0.0316 µM, first compound 0.003 µM): 113%; viability, T/C (second compound 0.0316 µM, first compound 0.00949 µM): 105%; viability, T/C (second compound 0.0316 µM, first compound 0.03 µM): 114%; viability, T/C (second compound 0.0316 µM, first compound 0.0949 µM): 103%; viability, T/C (second compound 0.0316 µM, first compound 0.3 µM): 108%; viability, T/C (second compound 0.1 µM, first compound 0.000949 µM): 65.7%; viability, T/C (second compound 0.1 µM, first compound 0.003 µM): 71.8%; viability, T/C (second compound 0.1 µM, first compound 0.00949 µM): 53.4%; viability, T/C (second compound 0.1 µM, first compound 0.03 µM): 77%; viability, T/C (second compound 0.1 µM, first compound 0.0949 µM): 21.2%; viability, T/C (second compound 0.1 µM, first compound 0.3 µM): 54.9%; viability, T/C (second compound 0.316 µM, first compound 0.000949 µM): 10.4%; viability, T/C (second compound 0.316 µM, first compound 0.003 µM): 8.73%; viability, T/C (second compound 0.316 µM, first compound 0.00949 µM): 9.29%; viability, T/C (second compound 0.316 µM, first compound 0.03 µM): 6.59%; viability, T/C (second compound 0.316 µM, first compound 0.0949 µM): 5.77%; viability, T/C (second compound 0.316 µM, first compound 0.3 µM): 1.61%; viability, T/C (second compound 1 µM, first compound 0.000949 µM): 0.14%; viability, T/C (second compound 1 µM, first compound 0.003 µM): 0.17%; viability, T/C (second compound 1 µM, first compound 0.00949 µM): 0.15%; viability, T/C (second compound 1 µM, first compound 0.03 µM): 0.32%; viability, T/C (second compound 1 µM, first compound 0.0949 µM): 0.13%; viability, T/C (second compound 1 µM, first compound 0.3 µM): 0.91%; viability, T/C (second compound 3.16 µM, first compound 0.000949 µM): 0.1%; viability, T/C (second compound 3.16 µM, first compound 0.003 µM): 0.13%; viability, T/C (second compound 3.16 µM, first compound 0.00949 µM): 0.21%; viability, T/C (second compound 3.16 µM, first compound 0.03 µM): 0.09%; viability, T/C (second compound 3.16 µM, first compound 0.0949 µM): 0.17%; viability, T/C (second compound 3.16 µM, first compound 0.3 µM): 2.63%; viability, T/C (second compound 10 µM, first compound 0.000949 µM): 0.15%; viability, T/C (second compound 10 µM, first compound 0.003 µM): 0.28%; viability, T/C (second compound 10 µM, first compound 0.00949 µM): 0.5%; viability, T/C (second compound 10 µM, first compound 0.03 µM): 0.15%; viability, T/C (second compound 10 µM, first compound 0.0949 µM): 0.27%; viability, T/C (second compound 10 µM, first compound 0.3 µM): 0.37%

For `CC(CO)NC(=O)c1cc(-c2ccc(Cl)cc2)nn(-c2cnn(C)c2)c1=O` (stereo unspecified) + CNC(=O)c1ccc(Nc2nc(OC3CCCC3)c3c(-c4ccc5nc(C)oc5c4)c[nH]c3n2)c(OC)c1, which IC50 [1] is on record?
The IC50 was greater than 10 µM.

What about the IC50 [2] of the same compound?
The IC50 was greater than 10 µM.

What about the IC50 [3] of the same compound?
The IC50 was greater than 10 µM.

What about the IC50 [4] of the same compound?
Its IC50 is less than 0.0316 µM.

What about the IC50 [5] of the same compound?
Its IC50 is less than 0.0316 µM.

And the IC50 [6]?
The IC50 was less than 0.0316 µM.

And the viability, T/C (second compound 0.0316 µM, first compound 0.0316 µM)?
The viability, T/C was 117%.

What about the viability, T/C (second compound 0.0316 µM, first compound 0.1 µM) of the same compound?
The viability, T/C was 99.4%.

And the viability, T/C (second compound 0.0316 µM, first compound 0.316 µM)?
Its viability, T/C is 94.4%.

What about the viability, T/C (second compound 0.0316 µM, first compound 1 µM) of the same compound?
Its viability, T/C is 97.2%.

And the viability, T/C (second compound 0.0316 µM, first compound 3.16 µM)?
The viability, T/C was 97.2%.

And the viability, T/C (second compound 0.0316 µM, first compound 10 µM)?
Its viability, T/C is 88.2%.

And the viability, T/C (second compound 0.1 µM, first compound 0.0316 µM)?
The viability, T/C was 102%.

And the viability, T/C (second compound 0.1 µM, first compound 0.1 µM)?
The viability, T/C was 99.6%.

And the viability, T/C (second compound 0.1 µM, first compound 0.316 µM)?
The viability, T/C was 85.7%.

And the viability, T/C (second compound 0.1 µM, first compound 1 µM)?
Its viability, T/C is 96.7%.

And the viability, T/C (second compound 0.1 µM, first compound 3.16 µM)?
Its viability, T/C is 95%.

And the viability, T/C (second compound 0.1 µM, first compound 10 µM)?
Its viability, T/C is 85.1%.

And the viability, T/C (second compound 0.316 µM, first compound 0.0316 µM)?
Its viability, T/C is 79.1%.

And the viability, T/C (second compound 0.316 µM, first compound 0.1 µM)?
Its viability, T/C is 76.8%.

And the viability, T/C (second compound 0.316 µM, first compound 0.316 µM)?
The viability, T/C was 74.6%.

And the viability, T/C (second compound 0.316 µM, first compound 1 µM)?
The viability, T/C was 77.2%.

What about the viability, T/C (second compound 0.316 µM, first compound 3.16 µM) of the same compound?
Its viability, T/C is 80.5%.

And the viability, T/C (second compound 0.316 µM, first compound 10 µM)?
Its viability, T/C is 66.8%.

And the viability, T/C (second compound 1 µM, first compound 0.0316 µM)?
Its viability, T/C is 48.9%.

And the viability, T/C (second compound 1 µM, first compound 0.1 µM)?
Its viability, T/C is 51.3%.

What about the viability, T/C (second compound 1 µM, first compound 0.316 µM) of the same compound?
The viability, T/C was 44%.

What about the viability, T/C (second compound 1 µM, first compound 1 µM) of the same compound?
The viability, T/C was 32.6%.

And the viability, T/C (second compound 1 µM, first compound 3.16 µM)?
The viability, T/C was 55.4%.

And the viability, T/C (second compound 1 µM, first compound 10 µM)?
Its viability, T/C is 53.1%.

And the viability, T/C (second compound 3.16 µM, first compound 0.0316 µM)?
The viability, T/C was 24.6%.

And the viability, T/C (second compound 3.16 µM, first compound 0.1 µM)?
The viability, T/C was 37%.

And the viability, T/C (second compound 3.16 µM, first compound 0.316 µM)?
The viability, T/C was 39.2%.

And the viability, T/C (second compound 3.16 µM, first compound 1 µM)?
The viability, T/C was 28%.

And the viability, T/C (second compound 3.16 µM, first compound 3.16 µM)?
The viability, T/C was 39.4%.

What about the viability, T/C (second compound 3.16 µM, first compound 10 µM) of the same compound?
Its viability, T/C is 35.2%.

What about the viability, T/C (second compound 10 µM, first compound 0.0316 µM) of the same compound?
Its viability, T/C is 18.5%.

And the viability, T/C (second compound 10 µM, first compound 0.1 µM)?
Its viability, T/C is 26.8%.

What about the viability, T/C (second compound 10 µM, first compound 0.316 µM) of the same compound?
Its viability, T/C is 27.3%.

What about the viability, T/C (second compound 10 µM, first compound 1 µM) of the same compound?
The viability, T/C was 22.2%.

What about the viability, T/C (second compound 10 µM, first compound 3.16 µM) of the same compound?
The viability, T/C was 30%.

What about the viability, T/C (second compound 10 µM, first compound 10 µM) of the same compound?
Its viability, T/C is 27.7%.

Which results are given for `COC1C=CCC(C)C(C)S(=O)(=O)NC(=O)c2ccc3c(c2)N(CC2CCC21)CC1(CCCc2cc(Cl)ccc21)CO3` (stereo unspecified)?
viability, T/C (compound 0.0316 µM): 88.5% and 107%; viability, T/C (compound 0.1 µM): 98.9% and 95.5%; viability, T/C (compound 0.316 µM): 61.2% and 104%; viability, T/C (compound 1 µM): 53.9% and 76%; viability, T/C (compound 3.16 µM): 35.8% and 49.4%; viability, T/C (compound 10 µM): 20.4% and 19%; IC50 (curve of compound): 1.1 µM and 2.93 µM
